Laboratory results as given in publication PMC11882969 (Nature Communications, 2025).
“And” between values parts separate entries of the source, which are not always exact repeats. Equal values may be shown once. Read-outs that look alike come from different tables or passages of the source.

Experiments:
[1] = Pharmacokinetics: plasma, brain, CSF
mice [2] = assay: Hot plate, 52 °C; format: in vivo, mouse
mice [3] = assay: Hargreaves radiant heat test; format: in vivo, mouse
mice [4] = assay: Rotarod test; format: in vivo, mouse
mice [5] = assay: Conditioned place preference; format: in vivo, mouse; settings: for Individual animal scores (FigS11e): test not printed on the sheet; for conditioned place preference: drug-paired vs vehicle-paired chamber
Experimental: Briefly, mice were first habituated to the test apparatus, twice, and their preference for each chamber recorded for 30 min (Pretest). Two conditioning days followed in which mice received the vehicle control or the compound, and 30 min later restricted for 30 min in the preferred or non-preferred chamber, respectively. On day 5 (Test day), mice were allowed to roam freely between the 3 chambers of the apparatus and their preference for each chamber recorded for 30 min. To calculate the CPP score, we subtracted the time spent in each chamber of the box on the Pretest day from that of the Test day (CPP score = Test - Pretest).

mice [6] = assay: Acetone test, cold allodynia after spared nerve injury; format: in vivo, mouse
Experimental: Mice were placed on a wire mesh and thirty min after an i.p. injection of the compounds we applied a drop (50 μL) of acetone on the ventral aspect of the hindpaw, 5 times every 30 sec. We recorded the number of nocifensive behaviors (paw lifts/licks/shakes/bites) over the 5 applications.

mice [7] = assay: Catalepsy test, vertical wire mesh; format: in vivo, mouse
Experimental: Thirty min after an i.p. injection of the compounds, mice were placed on a vertical wire mesh and the latency to move all four paws was recorded.

mice [8] = test system: mice
Experimental: For all behavioral tests, the experimenter was always blind to treatment. Animals were first habituated for 30-60 min in Plexiglas cylinders and then tested 30 min after i.p. or i.t. injection of the compounds. The thermal (Hargreaves, hotplate and tail flick) and ambulatory (rotarod) tests were conducted as described[96]. Briefly, hindpaw thermal sensitivity was measured with a radiant heat source (Hargreaves) or on a hotplate at 52 °C. For the tail flick assay, sensitivity was measured by immersing the tail into a 50 °C water bath. For the ambulatory (rotarod) test, before testing with any compound, mice underwent three trainings on three consecutive days until they reach 300 sec. Each training has three sessions of five min each. Therapeutic window was calculated as the ratio of the minimum dose of side effect phenotype to the minimum dose of analgesic phenotype.

in vitro = settings: mouse, plasma
Experimental: The reactions were stopped by adding 240 μL 90% acetonitrile containing internal standard with subsequent plasma proteins sedimentation by centrifuging at 5796 g for 5 min. Supernatants were analyzed by the HPLC system coupled with a tandem mass spectrometer. The percentage of the test compounds remaining after incubation in plasma and their half-lives (T1/2) were calculated.

mice [9] = assay: Tail flick, 50 °C water bath; format: in vivo, mouse; settings: for analgesic response normalised to baseline, WT vs CB1R KO (Figure5d), individual animals: 10 mg/kg
[10] = molecular target: T1, human PTH receptor (PTHR) (Homo sapiens, UniProt Q03431); assay: Gs bioSens-All control assay; format: cell-based; settings: raw signal, log[PTH]
T1 construct: expressed in transfected cells; host or cells: HEK293 (HEK293SL) cells, transient co-transfection with the Gαs biosensor
T1 sequence (Q03431 27-593): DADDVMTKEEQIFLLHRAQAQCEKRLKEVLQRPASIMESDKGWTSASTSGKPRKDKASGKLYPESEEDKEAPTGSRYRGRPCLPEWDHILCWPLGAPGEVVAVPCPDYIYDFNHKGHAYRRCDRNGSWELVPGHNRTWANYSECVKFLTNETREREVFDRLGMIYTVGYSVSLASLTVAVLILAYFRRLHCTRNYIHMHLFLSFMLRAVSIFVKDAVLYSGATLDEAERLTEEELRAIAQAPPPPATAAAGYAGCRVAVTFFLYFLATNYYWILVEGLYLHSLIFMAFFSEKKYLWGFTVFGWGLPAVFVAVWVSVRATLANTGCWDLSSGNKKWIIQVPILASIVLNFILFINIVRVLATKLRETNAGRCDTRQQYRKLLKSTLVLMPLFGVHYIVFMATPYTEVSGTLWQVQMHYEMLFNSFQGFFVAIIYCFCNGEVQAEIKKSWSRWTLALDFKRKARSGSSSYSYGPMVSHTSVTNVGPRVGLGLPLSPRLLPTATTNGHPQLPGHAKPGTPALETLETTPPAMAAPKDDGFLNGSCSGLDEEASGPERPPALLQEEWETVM
Source text: Experimental data were produced in singleton and curves were fitted using the four-parameter logistic non-linear regression model (GraphPad Prism 9). Data are expressed as uBRET.

[11] = 0.2 mg/kg, individual animals, FigS11b

CCCCCCC(C)(C)c1ccc([C@@H]2C[C@H](O)CC[C@H]2CCCO)c(O)c1 [CP55940]
Brain, Mean ([1]; Time 1 min): 0 | CSF, Mean ([1]; Time 1 min): 0 | Plasma, Mean ([1]; Time 1 min): 0 | Brain, Mean ([1]; Time 5 min): 0 | CSF, Mean ([1]; Time 5 min): 0 | Plasma, Mean ([1]; Time 5 min): 21.5 | Brain, Mean ([1]; Time 15 min): 11.5 | CSF, Mean ([1]; Time 15 min): 0 | Plasma, Mean ([1]; Time 15 min): 47.5 | Brain, Mean ([1]; Time 30 min): 19.2 | CSF, Mean ([1]; Time 30 min): 0 | Plasma, Mean ([1]; Time 30 min): 48.4 | Brain, Mean ([1]; Time 60 min): 17.1 | CSF, Mean ([1]; Time 60 min): 0 | Plasma, Mean ([1]; Time 60 min): 26.7 | Brain, Mean ([1]; Time 120 min): 11.9 | CSF, Mean ([1]; Time 120 min): 0 | Plasma, Mean ([1]; Time 120 min): 10.6 | Brain, Mean ([1]; Time 240 min): 3.09 | CSF, Mean ([1]; Time 240 min): 0 | Plasma, Mean ([1]; Time 240 min): 2.6 | Brain, Mean ([1]; Time 360 min): 0 | CSF, Mean ([1]; Time 360 min): 0 | Plasma, Mean ([1]; Time 360 min): 0 | Brain, Mean ([1]; Time 480 min): 0 | CSF, Mean ([1]; Time 480 min): 0 | Plasma, Mean ([1]; Time 480 min): 0 | Brain, Mean ([1]; Time […]): 0 | CSF, Mean ([1]; Time […]): 0 | Plasma, Mean ([1]; Time […]): 0

CCCCCCC(C)(C)c1ccc([C@@H]2C[C@H](O)CC[C@H]2CCCO)c(O)c1 [CP-55,940, reference compound]
Jump (mice [2]; [11]): 18 and 0 (2×) and 4 (2×) | Paw lick (mice [2]; [11]): 0 (4×) and 10 | Paw shake (mice [2]; [11]): 0 (2×) and 6 and 12 and 8 | Paw withdrawal (mice [2]; [11]): 18 and 34 and 32 and 36 and 64 | hot plate response normalised to baseline (Figure4b), individual animals (mice [2]; Dose 0.2 mg/kg): 98.1 and 121.1 and 123.4 and 122.6 and 97.5 | hot plate response normalised to baseline (Figure4b), individual animals (mice [2]; Dose 0.5 mg/kg): 256.6 and 226.6 and 210.5 and 222.4 and 213.7 | lowest dose with significantly increased hot plate latency (mice [2]; i.p., 30 min after injection): 0.5 mg/kg | lowest dose with significantly increased latency, Hargreaves (mice [3]; i.p., 30 min after injection): 0.2 mg/kg | rotarod performance (Figure6b), individual animals (mice [4]; Dose 0.1 mg/kg): 284 and 282 and 285 and 300 | rotarod performance (Figure6b), individual animals (mice [4]; Dose 0.2 mg/kg): 261 and 257 and 210 and 300 and 91 and 161 and 258 and 208 and 236 and 275 | rotarod performance (Figure6b), individual animals (mice [4]; Dose 1.0 mg/kg): 200 and 204 and 173 and 236 and 203 | motor impairment at analgesic doses (mice [4]; rotarod and open field): caused motor impairment in both the rotarod and open field tests | Individual animal scores (FigS11e) (mice [5]; 0.5 mg/kg): -18 and -21 and -54 and 119 and -213 and 8 and -326 and -238 | conditioned place preference (mice [5]): may actually induce some aversion | acetone test response after spared nerve injury (Figure5b), individual animals (mice [6]; Dose 0.2 mg/kg): 36 and 40 and 48 and 76 | effect on acetone-induced nocifensive behaviors (mice [6]; spared nerve injury, i.p.): strongly reduced spared nerve injury-induced cold allodynia | catalepsy (Figure6c), individual animals (mice [7]; 0.2 mg/kg dose): 17 and 15 and 13 and 3 and 5 | catalepsy (Figure6c), individual animals (mice [7]; 0.5 mg/kg dose): 6.8 and 5 (2×) and 30 and 5.6 and 4 and 2 (2×) and 7 and 8.5 | catalepsy (Figure6c), individual animals (mice [7]; 1 mg/kg dose): 15.3 and 23.3 and 17.7 and 28 and 15.7 | dose at which catalepsy starts (mice [7]; i.p.): 0.2 mg/kg | therapeutic window, Acetone (mice [8]; Figure 6e, vs rotarod): 1 | therapeutic window, Hot Plate (mice [8]; Figure 6e, vs rotarod): 0.4 | therapeutic window, Tail Flick (mice [8]; Figure 6e, vs rotarod): 0.4 | therapeutic window, analgesia vs catalepsy (mice [8]; Figure 6f): no window between analgesia and catalepsy | therapeutic window, Acetone (mice [8]; Figure 6d, vs open field): 1 | therapeutic window, Hot Plate (mice [8]; Figure 6d, vs open field): 0.4 | therapeutic window, Tail Flick (mice [8]; Figure 6d, vs open field): 0.4 | brain Cmax ([1]; 0.2 mg/kg i.p., CD-1 mice): 19.2 ng/g | brain T1/2 ([1]; 0.2 mg/kg i.p., CD-1 mice): 127 min

CCCCCCC(C)(C)c1ccc([C@@H]2C[C@H](O)CC[C@H]2CCCO)c(O)c1 [CP-55940]
Dose response, individual animals (FigS11a) (mice [3]; Dose 0.2 mg/kg, test not printed on the sheet): 256.9 and 109.7 and 71.66 and 121.4 and 287.7

CC(C)[N+](C)(CCOC(=O)C1c2ccccc2Oc2ccccc21)C(C)C [Propantheline, reference compound]
half-life at 1 µM (in vitro): 28 min | remaining at 20 min, 1 µM (in vitro): 75% | remaining at 40 min, 1 µM (in vitro): 50% | remaining at 1 h, 1 µM (in vitro): 31% | remaining at 2 h, 1 µM (in vitro): 6%

O=C(CCCN1CCC(O)(c2ccc(Cl)cc2)CC1)c1ccc(F)cc1 [haloperidol, reference compound]
catalepsy (Figure6c), individual animals (mice [7]; 1 mg/kg dose): 21 and 17 and 11.5 and 18 and 14 | catalepsy, latency to move all four paws (mice [7]; i.p., ‘1350 at 0.2 or 0.5 mg/kg, haloperidol 1.0 mg/kg): induced catalepsy

CN1CC[C@]23c4c5ccc(O)c4O[C@H]2[C@@H](O)C=C[C@H]3[C@H]1C5 [morphine, reference compound]
analgesic response normalised to baseline, WT vs CB1R KO (Figure5d), individual animals (mice [9]; CB1R KO mice): 186.205 and 193.839 and 225.055 and 193.021 and 200.382 | Response relative to baseline (baseline about 100) (mice [9]; Morphine 3 mg/kg, individual animals, sheet Figure7b, test not given): 153.4 and 95 and 153.1 and 101.6 and 124.1 and 132.6 and 140.4 and 96.4 and 125 and 194 and 137 and 131 and 126 and 149.7 and 136.2 | analgesic response normalised to baseline, WT vs CB1R KO (Figure5d), individual animals (mice [9]; WT mice): 138.803 and 169.174 and 209.668 and 177.834 and 174.541 | Individual animal scores (FigS11e) (mice [5]; 20 mg/kg): 125 and 92 and 189 and -5 and 874 and 419 and 158 and 182 | conditioned place preference (mice [5]): significantly increased their preference

PTH
PTH control response ([10]; M -6.22186): 5622 | PTH control response ([10]; M -6.53946): 5653 | PTH control response ([10]; M -6.85696): 5394 | PTH control response ([10]; M -7.17551): 5221 | PTH control response ([10]; M -7.49499): 5149 | PTH control response ([10]; M -7.80694): 5011 | PTH control response ([10]; M -8.11922): 4856 | PTH control response ([10]; M -8.44613): 4893 | PTH control response ([10]; M -8.76448): 5167 | PTH control response ([10]; M -9.07573): 5440 | PTH control response ([10]; M -9.22186): 6053 | PTH control response ([10]; M -9.39794): 5806 | PTH control response ([10]; M -9.68787): 6475 | PTH control response ([10]; M -10.1552): 7581 | PTH control response ([10]; M -10.6199): 8362 | PTH control response ([10]; M -11.0969): 9720 | PTH control response ([10]; M -11.5529): 9963 | PTH control response ([10]; M -12.0177): 10394 | PTH control response ([10]; M -12.4948): 10587 | PTH control response ([10]; M -12.9208): 10667 | PTH control response ([10]; M -13.3979): 10336 | PTH control response ([10]; M -13.8861): 10932 | PTH control response ([10]; M -14): 11358 and 10843
